This is an account of results in paper PMC12827886 (Acta Pharmaceutica Sinica. B, 2025).

This assay deals with Cereblon (CRBN) (Homo sapiens, UniProt Q96SW2). As to the kind of experiment: biochemical. Format: binding.

A word on the IC50: it is the concentration that gives 50% inhibition. Low values mean inhibition by little substance, high ones a need for much substance.

Sequence of Cereblon (CRBN) (Q16531 2-1140): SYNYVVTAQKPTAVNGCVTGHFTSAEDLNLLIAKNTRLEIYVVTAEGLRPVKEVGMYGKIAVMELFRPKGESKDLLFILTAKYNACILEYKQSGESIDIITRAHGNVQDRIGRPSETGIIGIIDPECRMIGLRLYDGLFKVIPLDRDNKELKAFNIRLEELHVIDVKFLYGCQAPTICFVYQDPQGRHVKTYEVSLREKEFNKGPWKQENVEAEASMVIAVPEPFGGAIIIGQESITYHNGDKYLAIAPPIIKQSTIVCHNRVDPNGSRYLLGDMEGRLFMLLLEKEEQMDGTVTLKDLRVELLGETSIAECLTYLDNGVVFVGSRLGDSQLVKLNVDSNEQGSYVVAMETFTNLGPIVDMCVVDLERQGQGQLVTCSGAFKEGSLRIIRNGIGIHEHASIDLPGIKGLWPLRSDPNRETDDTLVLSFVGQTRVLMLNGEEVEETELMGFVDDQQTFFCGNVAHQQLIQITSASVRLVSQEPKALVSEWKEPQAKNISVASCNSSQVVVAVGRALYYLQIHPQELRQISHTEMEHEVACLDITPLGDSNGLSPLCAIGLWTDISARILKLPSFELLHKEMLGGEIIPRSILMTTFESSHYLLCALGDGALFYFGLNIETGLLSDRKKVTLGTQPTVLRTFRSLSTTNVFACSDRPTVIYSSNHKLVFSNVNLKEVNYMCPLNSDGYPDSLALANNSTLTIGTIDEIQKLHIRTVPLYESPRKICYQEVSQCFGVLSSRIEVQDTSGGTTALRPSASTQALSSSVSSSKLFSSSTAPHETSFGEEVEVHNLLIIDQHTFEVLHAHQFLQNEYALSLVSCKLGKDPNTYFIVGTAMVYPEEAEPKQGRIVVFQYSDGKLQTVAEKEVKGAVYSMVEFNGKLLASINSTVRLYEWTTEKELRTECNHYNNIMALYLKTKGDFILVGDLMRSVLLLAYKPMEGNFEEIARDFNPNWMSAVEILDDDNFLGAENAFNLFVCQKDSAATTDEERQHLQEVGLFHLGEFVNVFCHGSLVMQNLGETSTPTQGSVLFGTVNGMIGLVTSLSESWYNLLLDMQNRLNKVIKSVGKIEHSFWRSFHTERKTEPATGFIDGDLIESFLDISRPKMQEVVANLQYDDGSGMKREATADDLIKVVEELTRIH
Sequence of Cereblon (CRBN) (Q96SW2 whole entry): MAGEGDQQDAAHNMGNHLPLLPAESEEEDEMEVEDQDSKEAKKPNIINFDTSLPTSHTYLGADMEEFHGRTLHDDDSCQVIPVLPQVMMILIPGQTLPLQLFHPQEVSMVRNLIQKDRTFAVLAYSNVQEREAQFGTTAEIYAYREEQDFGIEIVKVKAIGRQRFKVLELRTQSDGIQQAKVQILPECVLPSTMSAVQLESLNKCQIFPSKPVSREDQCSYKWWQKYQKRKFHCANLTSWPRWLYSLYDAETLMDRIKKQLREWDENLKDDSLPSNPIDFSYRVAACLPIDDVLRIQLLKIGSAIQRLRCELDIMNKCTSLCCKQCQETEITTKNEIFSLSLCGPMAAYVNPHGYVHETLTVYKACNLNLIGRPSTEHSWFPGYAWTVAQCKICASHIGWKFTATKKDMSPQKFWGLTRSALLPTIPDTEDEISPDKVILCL

For `CO[C@H]1/C=C/O[C@@]2(C)Oc3c(C)c(O)c4c(c3C2=O)C(=O)C=C(NC(=O)/C(C)=C\C=C\[C@H](C)[C@H](O)[C@@H](C)[C@@H](O)[C@@H](C)[C@H](OC(C)=O)[C@@H]1C)C4=O` [Rifamycin S], the IC50 is 3.09 µM. This lies in the single-digit micromolar range.
The result for `CO[C@H]1/C=C/O[C@@]2(C)Oc3c(C)c(O)c4c(c3C2=O)C2=NC3(CCN(CC(C)C)CC3)NC2=C(NC(=O)/C(C)=C\C=C\[C@H](C)[C@H](O)[C@@H](C)[C@@H](O)[C@@H](C)[C@H](OC(C)=O)[C@@H]1C)C4=O` [Rifabutin] reads 15.8 µM.
